In ChEMBL document CHEMBL1201862, “PubChem BioAssay data set” (2004):
One block for each compound: values may come before it. Active and inactive are the calls of the source.

Tests used:
[1] = viability inhibitors of stage V gametocytes – luminescence, dose response (AID 1117278); format: functional, cell-based;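 also: gametocytes exposed to compound for 24 hours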
[2] = viability loss in human Jurkat cells – cell-based, luminescence, cytotoxicity control for P. falciparum gametocyte viability project, dose response (AID 1117277); format: functional;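 also: potency reflects loss of cellular ATP meaning fewer viable cells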
[3] = target: T1, Oxysterols receptor LXR-beta (Homo sapiens, UniProt P55055); assay: LXR agonists, Gal4 luciferase reporter, dose response, counter-screen for ssDAF-12 agonist project, cell-based, luminescence, HEK293, S. stercoralis campaign (AID 720737); format: functional; settings: read-out: IC50 (the source's name)
T1 sequence (P55055 whole entry): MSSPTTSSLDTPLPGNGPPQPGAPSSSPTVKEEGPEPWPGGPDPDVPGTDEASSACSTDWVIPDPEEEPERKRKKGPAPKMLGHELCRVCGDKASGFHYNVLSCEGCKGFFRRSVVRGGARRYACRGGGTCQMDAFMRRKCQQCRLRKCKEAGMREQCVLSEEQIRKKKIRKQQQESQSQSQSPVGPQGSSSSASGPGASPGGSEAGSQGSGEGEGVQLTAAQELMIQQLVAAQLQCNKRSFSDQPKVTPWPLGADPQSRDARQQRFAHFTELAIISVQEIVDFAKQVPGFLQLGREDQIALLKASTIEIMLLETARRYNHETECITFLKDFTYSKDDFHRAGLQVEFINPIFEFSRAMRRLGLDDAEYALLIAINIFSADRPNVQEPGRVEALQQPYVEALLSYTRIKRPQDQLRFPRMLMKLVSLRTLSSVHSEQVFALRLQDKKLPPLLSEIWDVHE

[4] = Luminescence-based cell-based high throughput dose response assay to identify activators of the DAF-12 from the parasite S. stercoralis (ssDAF-12).; format: functional
[5] = HEK-293T cell viability reduction – luminescence, B-cell screen hits, cytotoxicity control for BCR NF-kB inhibitor project, dose response (AID 489021); format: functional, cell-based;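 also: HEK-293T cells carrying an NF-kB luciferase reporter; cells exposed to compound for about 14 hours before viability readout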
[6] = HIV-1 Vif–A3G interaction blockers – biochemical, TR-FRET, GST-Vif 1-94, biotin-A3G peptide, dose response retest, primary screen (AID 1117319); format: functional;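 also: TR-FRET signal of purified GST-Vif binding a biotinylated A3G peptide; inhibitors lower the FRET signal by blocking Vif and A3G binding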
[7] = target: Protein Tat (Human immunodeficiency virus type 1 group M subtype B (isolate HXB2)(HIV-1), UniProt P04608); format: functional;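 also: tat binding to TAR RNA read out by fluorescence polarization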
[8] = Luminescence Cell-Based Dose Retest to Confirm Inhibitors of Cancer Stem Cells. [Related pubchem assays (depositor defined):AID2717, AID2721]; format: functional; settings: Homo sapiens
[9] = viability loss of HMLE_sh_eGFP cells – cell-based, luminescence, counter-screen for HMLE_sh_ECad selective toxicity project, dose response (AID 463074); format: functional, Homo sapiens;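 also: HMLE human mammary epithelial cells expressing control shRNA against eGFP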
[10] = target: Neurotensin receptor type 1 (Homo sapiens, UniProt P30989); format: functional;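 also: Image-based confirmatory dose-response assay measuring agonist activity at NTR1; NTR1-expressing U2OS osteosarcoma cells imaged for beta-arrestin GFP spot formation; agonist potency where compounds increase beta-arrestin recruitment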
[11] = target: Heat shock protein HSP 90-alpha (Homo sapiens, UniProt P07900); format: functional, organism-based
[12] = target: T2, Mannose-6-phosphate isomerase (Homo sapiens, UniProt P34949); assay: MPI enzyme activity inhibition – biochemical, fluorescence intensity, coupled assay, primary screen (AID 1209)
T2 sequence (P34949 whole entry): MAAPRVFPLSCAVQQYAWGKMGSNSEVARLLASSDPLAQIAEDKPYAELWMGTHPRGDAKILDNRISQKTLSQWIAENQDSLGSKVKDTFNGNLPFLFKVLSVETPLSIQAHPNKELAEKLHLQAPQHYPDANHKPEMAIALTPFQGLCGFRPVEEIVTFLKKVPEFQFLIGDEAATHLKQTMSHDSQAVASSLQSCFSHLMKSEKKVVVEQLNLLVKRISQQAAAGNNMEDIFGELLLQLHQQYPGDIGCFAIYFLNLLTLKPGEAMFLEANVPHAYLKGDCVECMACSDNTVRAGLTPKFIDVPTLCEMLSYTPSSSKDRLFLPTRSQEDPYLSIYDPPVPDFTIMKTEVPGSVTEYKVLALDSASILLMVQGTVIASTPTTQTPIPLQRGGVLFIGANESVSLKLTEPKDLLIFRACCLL

[13] = system: INS1; assay: INS-1E survival protection against cytokine death – cell-based, luminescence, retest, dose response (AID 449756); format: functional; settings: Rattus norvegicus;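 also: cell death triggered by IL-1 beta plus TNF-alpha plus IFN-gamma mixture; protective hits raise ATP signal compared with cytokine alone wells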
[14] = target: Lysosomal acid glucosylceramidase (Homo sapiens, UniProt P04062); assay: Dose response cell-based high throughput screening assay to identify enhancers of beta-glucosidase activity. [Related pubchem assays: 784 ]; format: functional
[15] = Luminescence Cell-Based Dose Confirmation HTS to Identify Inhibitors of Polyadenylation.; format: functional
[16] = target: T3, Estrogen receptor beta (Homo sapiens, UniProt Q92731);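 also: recombinant ER-beta bound to coactivator SRC1 peptide in presence of estradiol agonist; inhibitors block coactivator peptide binding and lower the FRET signal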
[17] = target: T3, Estrogen receptor beta; assay: blockers of SRC-3 recruitment to ERβ – biochemical, ELISA, streptavidin-HRP readout, orthogonal assay, confirmation (AID 1060)
[18] = target: DNA dC->dU-editing enzyme APOBEC-3A (Homo sapiens, UniProt P31941); assay: Dose Response confirmation of small molecule APOBEC3A DNA Deaminase Inhibitors via a fluorescence-based single-stranded DNA deaminase assay. [Related pubchem assays (depositor defined):AID493011, AID493024]; format: functional
[19] = target: DNA dC->dU-editing enzyme APOBEC-3G (Homo sapiens, UniProt Q9HC16); format: functional;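 also: Dose-response counterscreen measuring inhibition of APOBEC3G DNA deaminase activity, run while confirming APOBEC3A inhibitors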
[20] = viability loss in Vero cells – cytotoxicity control for Vif-APOBEC3G degradation inhibitor project, dose response (AID 1117358); format: functional; settings: Vero
[21] = target: E3 ubiquitin-protein ligase Mdm2 (Homo sapiens, UniProt Q00987); assay: MDM2-luc reporter signal enhancers, multi-concentration potency testing, MDM2 ubiquitin-protein ligase inhibitor program, whole-cell format, luminescence detection, 384-well microplate (AID 1394); format: functional;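 also: MDM2 E3 inhibitors raise luminescence so EC50 is for signal enhancement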
[22] = target: Protein Rev (Human immunodeficiency virus type 1 group M subtype B (isolate HXB2)(HIV-1), UniProt P04618); assay: blockers of HIV Rev/RRE RNA complex – biochemical, fluorescence polarization, HIV-1, dose response (AID 434976); parameters: species or system Human immunodeficiency virus 1
[23] = target: Female germline-specific tumor suppressor gld-1 (Caenorhabditis elegans, UniProt Q17339); assay: blockers of GLD-1/TGE RNA complex formation – biochemical, fluorescence polarization, C. elegans, dose response (AID 2802);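 also: fluorescence polarization of labeled TGE RNA bound by purified gld-1 protein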
[24] = target: Polyadenylate-binding protein 1 (Homo sapiens, UniProt P11940); assay: blockers of PABP interaction with poly(A) – biochemical, fluorescence polarization, […] (AID 2014)
[25] = target: Eukaryotic translation initiation factor 4H (Homo sapiens, UniProt Q15056); assay: eIF4H binding inhibition – biochemical, uHTS, fluorescence polarization, translation initiation inhibitor project, primary screen (AID 2012)
[26] = target: T4, Alkaline phosphatase, tissue-nonspecific isozyme (Homo sapiens, UniProt P05186)
T4 sequence (P05186 whole entry): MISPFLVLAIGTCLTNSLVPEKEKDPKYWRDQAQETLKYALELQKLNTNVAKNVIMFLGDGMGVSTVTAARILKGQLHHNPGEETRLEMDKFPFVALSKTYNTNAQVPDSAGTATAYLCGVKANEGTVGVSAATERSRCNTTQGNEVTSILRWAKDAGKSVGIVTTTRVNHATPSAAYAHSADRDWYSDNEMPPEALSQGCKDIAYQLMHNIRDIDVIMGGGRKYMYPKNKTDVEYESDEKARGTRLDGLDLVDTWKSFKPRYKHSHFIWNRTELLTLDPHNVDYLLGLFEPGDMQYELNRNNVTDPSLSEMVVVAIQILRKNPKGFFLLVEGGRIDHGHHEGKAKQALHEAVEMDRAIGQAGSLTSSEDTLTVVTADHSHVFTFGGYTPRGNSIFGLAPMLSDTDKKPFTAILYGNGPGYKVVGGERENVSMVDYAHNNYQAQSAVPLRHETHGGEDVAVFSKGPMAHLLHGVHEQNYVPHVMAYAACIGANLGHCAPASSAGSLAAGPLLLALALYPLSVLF

[27] = target: T2, Mannose-6-phosphate isomerase; assay: MPI inhibition at elevated mannose 6-phosphate – biochemical, fluorescence intensity, high mannose 6-phosphate, primary screen (AID 1220)
[28] = cells; settings: HEK293
[29] = rise of 2N DNA cells, HeLa – IC50, dose response (AID 1117349); format: functional, cell-based
[30] = rise of 4N DNA cells, HeLa – IC50, dose response (AID 1117351); format: functional, cell-based

T3 sequence (Q92731 whole entry): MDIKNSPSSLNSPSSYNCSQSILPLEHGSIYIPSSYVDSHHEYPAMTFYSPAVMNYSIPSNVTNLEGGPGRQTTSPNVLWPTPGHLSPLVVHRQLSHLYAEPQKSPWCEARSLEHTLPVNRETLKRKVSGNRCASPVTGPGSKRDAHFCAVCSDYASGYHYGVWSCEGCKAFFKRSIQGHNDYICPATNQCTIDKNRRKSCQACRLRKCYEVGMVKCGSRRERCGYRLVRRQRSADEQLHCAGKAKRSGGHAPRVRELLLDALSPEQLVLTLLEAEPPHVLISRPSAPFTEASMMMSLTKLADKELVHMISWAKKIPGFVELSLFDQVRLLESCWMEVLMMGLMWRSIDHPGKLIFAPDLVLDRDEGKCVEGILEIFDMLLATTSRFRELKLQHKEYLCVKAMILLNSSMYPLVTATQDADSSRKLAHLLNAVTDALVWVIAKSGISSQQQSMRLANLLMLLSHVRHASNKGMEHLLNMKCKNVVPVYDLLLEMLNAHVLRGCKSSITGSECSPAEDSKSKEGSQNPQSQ
Sequence of Neurotensin receptor type 1 (P30989 whole entry): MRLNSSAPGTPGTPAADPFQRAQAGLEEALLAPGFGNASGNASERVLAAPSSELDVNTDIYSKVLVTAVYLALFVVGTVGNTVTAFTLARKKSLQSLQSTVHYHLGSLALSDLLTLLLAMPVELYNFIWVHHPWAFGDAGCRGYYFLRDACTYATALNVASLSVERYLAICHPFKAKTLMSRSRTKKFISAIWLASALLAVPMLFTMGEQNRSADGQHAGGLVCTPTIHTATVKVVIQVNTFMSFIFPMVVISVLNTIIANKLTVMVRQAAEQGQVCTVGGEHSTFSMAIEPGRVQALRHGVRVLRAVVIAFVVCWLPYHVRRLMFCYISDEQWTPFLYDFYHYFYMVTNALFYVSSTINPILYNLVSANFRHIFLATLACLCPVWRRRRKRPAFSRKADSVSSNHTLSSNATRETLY
Sequence of Lysosomal acid glucosylceramidase (P04062 whole entry): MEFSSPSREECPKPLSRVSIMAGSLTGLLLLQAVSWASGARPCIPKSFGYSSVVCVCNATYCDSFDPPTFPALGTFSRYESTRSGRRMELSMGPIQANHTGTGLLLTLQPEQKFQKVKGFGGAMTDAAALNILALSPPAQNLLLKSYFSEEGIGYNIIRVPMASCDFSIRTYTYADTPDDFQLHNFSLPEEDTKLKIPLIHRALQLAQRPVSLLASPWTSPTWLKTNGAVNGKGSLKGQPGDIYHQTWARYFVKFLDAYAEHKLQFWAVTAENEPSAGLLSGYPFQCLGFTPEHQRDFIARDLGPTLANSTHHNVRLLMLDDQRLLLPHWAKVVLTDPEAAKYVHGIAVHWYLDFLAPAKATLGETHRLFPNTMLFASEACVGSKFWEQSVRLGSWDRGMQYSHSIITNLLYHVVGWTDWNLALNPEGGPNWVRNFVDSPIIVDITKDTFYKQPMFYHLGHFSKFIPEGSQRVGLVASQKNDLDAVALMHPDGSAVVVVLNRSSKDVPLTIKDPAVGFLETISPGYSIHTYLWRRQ
Sequence of Protein Tat (P04608 whole entry): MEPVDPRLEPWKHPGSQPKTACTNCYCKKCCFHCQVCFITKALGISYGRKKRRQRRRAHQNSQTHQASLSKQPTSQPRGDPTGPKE
Sequence of DNA dC->dU-editing enzyme APOBEC-3G (Q9HC16 whole entry): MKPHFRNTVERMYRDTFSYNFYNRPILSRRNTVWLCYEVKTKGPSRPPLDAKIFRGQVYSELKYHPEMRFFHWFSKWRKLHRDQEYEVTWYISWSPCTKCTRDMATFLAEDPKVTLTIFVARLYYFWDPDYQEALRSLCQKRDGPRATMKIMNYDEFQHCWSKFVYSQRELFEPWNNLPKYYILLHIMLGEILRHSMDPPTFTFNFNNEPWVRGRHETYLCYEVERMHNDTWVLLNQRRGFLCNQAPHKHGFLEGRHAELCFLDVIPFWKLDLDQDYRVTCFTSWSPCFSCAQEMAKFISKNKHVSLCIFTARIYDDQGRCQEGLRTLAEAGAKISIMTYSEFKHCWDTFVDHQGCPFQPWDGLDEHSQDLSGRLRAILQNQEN
Sequence of DNA dC->dU-editing enzyme APOBEC-3A (P31941 whole entry): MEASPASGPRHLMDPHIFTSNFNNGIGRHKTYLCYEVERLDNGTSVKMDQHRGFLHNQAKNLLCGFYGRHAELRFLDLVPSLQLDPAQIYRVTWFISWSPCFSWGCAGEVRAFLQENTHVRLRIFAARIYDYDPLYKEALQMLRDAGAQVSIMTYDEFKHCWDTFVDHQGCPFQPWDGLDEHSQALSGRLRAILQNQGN
Sequence of E3 ubiquitin-protein ligase Mdm2 (Q00987 whole entry): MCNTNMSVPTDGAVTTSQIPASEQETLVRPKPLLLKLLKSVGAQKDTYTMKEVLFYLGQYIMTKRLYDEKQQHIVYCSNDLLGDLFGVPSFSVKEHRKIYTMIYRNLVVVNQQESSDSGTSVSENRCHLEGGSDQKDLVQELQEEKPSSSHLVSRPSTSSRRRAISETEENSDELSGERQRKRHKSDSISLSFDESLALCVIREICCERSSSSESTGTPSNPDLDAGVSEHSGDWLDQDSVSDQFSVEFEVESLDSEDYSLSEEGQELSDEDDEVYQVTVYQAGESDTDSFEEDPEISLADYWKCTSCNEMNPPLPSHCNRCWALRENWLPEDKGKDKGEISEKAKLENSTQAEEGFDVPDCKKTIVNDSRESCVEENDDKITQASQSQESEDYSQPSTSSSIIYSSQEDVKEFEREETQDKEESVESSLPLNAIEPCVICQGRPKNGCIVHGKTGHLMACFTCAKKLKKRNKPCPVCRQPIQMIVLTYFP
Sequence of Protein Rev (P04618 whole entry): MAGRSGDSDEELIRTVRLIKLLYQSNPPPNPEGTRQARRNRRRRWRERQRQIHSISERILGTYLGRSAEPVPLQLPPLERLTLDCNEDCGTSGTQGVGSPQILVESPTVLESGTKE
Sequence of Female germline-specific tumor suppressor gld-1 (Q17339 whole entry): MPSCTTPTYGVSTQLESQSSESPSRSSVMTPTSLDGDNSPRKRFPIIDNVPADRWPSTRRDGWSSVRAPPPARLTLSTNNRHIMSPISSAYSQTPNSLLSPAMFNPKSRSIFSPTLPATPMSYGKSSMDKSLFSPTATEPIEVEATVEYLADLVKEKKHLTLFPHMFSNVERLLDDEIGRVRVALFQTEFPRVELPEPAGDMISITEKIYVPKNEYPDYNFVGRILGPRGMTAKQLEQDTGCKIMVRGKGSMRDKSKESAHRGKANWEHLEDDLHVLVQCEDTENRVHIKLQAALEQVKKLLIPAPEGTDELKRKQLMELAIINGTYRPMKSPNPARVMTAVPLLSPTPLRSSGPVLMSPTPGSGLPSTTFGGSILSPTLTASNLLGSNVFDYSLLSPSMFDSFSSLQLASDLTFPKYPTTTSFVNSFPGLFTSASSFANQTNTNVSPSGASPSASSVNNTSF
Sequence of Polyadenylate-binding protein 1 (P11940 whole entry): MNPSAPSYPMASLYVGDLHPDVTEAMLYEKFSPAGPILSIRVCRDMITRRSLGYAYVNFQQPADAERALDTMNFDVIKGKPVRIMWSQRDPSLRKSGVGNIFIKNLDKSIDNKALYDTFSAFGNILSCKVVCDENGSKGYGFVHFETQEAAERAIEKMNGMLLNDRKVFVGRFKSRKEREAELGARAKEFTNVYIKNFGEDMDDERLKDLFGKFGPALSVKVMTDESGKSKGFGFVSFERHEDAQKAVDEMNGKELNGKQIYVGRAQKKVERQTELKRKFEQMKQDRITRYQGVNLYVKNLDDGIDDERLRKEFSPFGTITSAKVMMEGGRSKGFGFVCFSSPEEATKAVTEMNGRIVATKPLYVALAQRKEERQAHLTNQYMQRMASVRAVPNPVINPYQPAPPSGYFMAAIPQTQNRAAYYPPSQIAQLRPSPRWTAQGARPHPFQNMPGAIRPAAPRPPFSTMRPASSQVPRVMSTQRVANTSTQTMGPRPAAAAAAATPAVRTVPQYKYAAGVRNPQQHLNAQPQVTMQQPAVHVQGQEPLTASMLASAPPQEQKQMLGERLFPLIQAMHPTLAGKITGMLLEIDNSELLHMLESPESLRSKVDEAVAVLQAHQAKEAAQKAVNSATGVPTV

Structure (SMILES): CC1CCCN(CC(O)CN)C1 (stereo unspecified)
IC50 [1]: > 109 µM (inactive)
IC50 [2]: > 83.3 µM (inactive)

Structure (SMILES): Cc1c(C(=O)O/N=C(\N)c2ccccn2)cccc1[N+](=O)[O-]
EC50 [3]: > 67.6 µM (inactive)
IC50 [4]: > 67.6 µM (inactive)

Structure (SMILES): O=C(CCl)Nc1ccccc1Sc1ccccc1
IC50 [5]: > 80 µM (inactive)

IC50 [6]: > 100 µM (active)
Structure (SMILES): CCC(=O)N1CCc2cc(S(=O)(=O)NCCC(=O)NC3CCCc4ccccc43)ccc21 (stereo unspecified)

IC50 [7]: > 100 µM (active)
Structure (SMILES): CCn1c(SCC(=O)Nc2cc(C)on2)nnc1-c1cccnc1

Structure (SMILES): CCOC(=O)[C@H]1[C@H]2COc3cc(OC)ccc3[C@@H]2N2C(=O)c3ccc(C)cc3NC(=O)[C@@]12C
IC50 [1]: > 109 µM (inactive)
IC50 [2]: > 83.3 µM (inactive)

Structure (SMILES): O=C(/C=C/c1ccc(Cl)c([N+](=O)[O-])c1)c1cccnc1
AC50 [8]: 4.16 µM (active)
AC50 [9]: 56.4 µM (active)
EC50 [10]: > 40 µM (inactive)
AC50 [11]: 1.31 µM (active)

Structure (SMILES): COc1ccc(C(=O)NC(=S)NNC(=O)c2cnccn2)cc1OC
IC50 [12]: > 50 µM (not active)
AC50 [13]: 1.03 µM (active)

EC50 [14]: > 50 µM (not active)
Structure (SMILES): CC(=O)c1ccc(NC(=O)CSCCO)cc1

Structure (SMILES): CCOc1ccc(CCNC(=O)CN2C(=O)CCSc3ccccc32)cc1OCC
EC50 [15]: > 120 µM (not active)

IC50 [16]: 13.6 µM (active)
IC50 [17]: > 50 µM (not active)
Structure (SMILES): O=C1NCCCC2c3cc(O)c4ccccc4c3OC12N1CCCCC1 (stereo unspecified)

Structure (SMILES): CCN(CC(=O)Nc1c(F)cccc1F)C(=O)c1cccc(-n2cccc2)c1
IC50 [18]: 15.9 µM (active)
IC50 [7]: > 100 µM (active)
IC50 [19]: 34.8 µM (active)

Structure (SMILES): Cc1ccc(S(=O)(=O)N(C)CC(O)Cn2c3ccccc3c3ccccc32)cc1 (stereo unspecified)
CC50 [20]: > 40 µM (active)

Structure (SMILES): Cc1cnc(NC(=O)Nc2ccc(Cl)cc2)s1
IC50 [5]: > 80 µM (inactive)

Structure (SMILES): COc1cccc(-c2nc3ccccc3s2)c1O
EC50 [3]: > 67.6 µM (inactive)
IC50 [4]: > 67.6 µM (inactive)

Structure (SMILES): COc1ccc(CC(=O)OCn2nnc3ccccc3c2=O)cc1
CC50 [20]: > 40 µM (active)

IC50 [16]: 30.7 µM (not active)
IC50 [17]: 0.0586 µM (not active)
Structure (SMILES): CCc1nc2oc3cc(OC)ccc3c(=O)c2c(=O)n1Cc1ccco1

EC50 [21]: 7.82 µM (active)
IC50 [6]: > 100 µM (active)
Structure (SMILES): Nc1cccc2c1C(=O)N(C(=O)/C=C/c1cccc(Br)c1)C2=O

Structure (SMILES): Cc1ccc(-c2nc(Nc3cccc(O)c3)c3ccccc3n2)cc1
AC50 [8]: 5.05 µM (active)
EC50 [10]: 30.6 µM (inactive)

Structure (SMILES): CC(CCC(C)C(C)(C)C)[C@@H]1CC[C@H]2C3C[C@H](OS(O)(=S)=S)[C@H]4C[C@H](OS(O)(=S)=S)[C@@H](OS(O)(=S)=S)C[C@]4(C)[C@H]3CC[C@]12C.Nc1ncc[nH]1 (stereo partly specified)
IC50 [22]: 8.34 µM (active)
IC50 [23]: 3.66 µM (active)

Structure (SMILES): COc1ccc2c(c1)c1nnc(SC)nc1n2C
EC50 [15]: > 120 µM (not active)

Structure (SMILES): CCN1C(NCc2cc(OC)c(OC)c(OC)c2)=N[C@@H](c2ccccc2)[C@H](C(=O)OC)[C@H]1C
IC50 [24]: 11.9 µM (active)
IC50 [25]: > 100 µM (inactive)

EC50 [26]: 66.5 µM (not active)
Structure (SMILES): CC(Oc1ccccc1)C(=O)NNC(=O)c1ccccn1 (stereo unspecified)

EC50 [14]: > 50 µM (not active)
Structure (SMILES): O=C(NCC(=O)N(c1cccnc1)C(C(=O)NC1CCCC1)c1ccco1)c1cccs1 (stereo unspecified)

IC50 [27]: > 50 µM (not active)
IC50 [12]: > 50 µM (not active)
Structure (SMILES): Cc1ccc([N+](=O)[O-])cc1/N=C/C1=C(O)c2ccccc2CC1

Structure (SMILES): c1ccc2c(c1)ncn2CCOc1ccc2c(c1)CCC2
AC50 [28]: 36.7 µM (active)

IC50 [27]: > 50 µM (not active)
Structure (SMILES): N#Cc1c(N2CCN(c3ccc(F)cc3)CC2)nc(N)c2c(N)nc3c(c12)CC(=O)N3C1CC1

Structure (SMILES): CCOc1ccc2nc3cc(N)ccc3c(N)c2c1 [ETHACRIDINE LACTATE]
IC50 [29]: > 10 µM (inactive)
IC50 [30]: > 10 µM (inactive)
